According to patent US10954488B2, “Extract of undifferentiated cells of Mimosa pudica and uses thereof in dermo-cosmetics” (PIERRE FABRE DERMO-COSMETIQUE, priority 2016, dated 2021):

Columns and labels:
[1] = test system: nitrite production (NO synthesis induced by iNOS) in RAW264.7 cells; experiment: Nitrite assay (Griess) in LPS-activated RAW264.7 macrophages; type: cell-based; settings: Mus musculus, 1 μM dexamethasone 1 h before 0.2 μg/mL LPS, 24 h, read-out: inhibition of nitrite production (% i)
Source text: (§1) In this example, we compare the anti-inflammatory activity of 2 Mimosa pudica extracts (E11 and E13). Extract E11 comes from ethyl acetate extraction of the dried and crushed Mimosa pudica leaves and extract E13 comes from extraction with the same solvent of the crushed materials derived from Mimosa pudica plant cell culture without bioconversion in an Erlenmeyer flask. The 2 extracts were weighed after evaporation of the solvent to dryness. They were taken up in DMSO. To evaluate and compare the anti-inflammatory activity of the 2 extracts in the same concentrations, we have an in vitro pharmacological test which consists in stimulating murine macrophages, RAW264.7 cells, that express on their surface the TLR4 receptor by the bacterial LPS according to (Kang et al. 2002. J Pharmacol Exp Ther. 302:138-144). Several parameters were studied and compared to a reference anti-inflammatory, dexamethasone: • nitrite production by the Griess technique. […]
The level of NO synthesis is evaluated in fresh or frozen (−80° C.) cell supernatants, without affecting the assay. The principle of the assay is based on the Griess (diazotization) reaction which produces a pink azo compound with absorbance at 540 nm.
(§2) Concentrations are expressed as averages. […]

[2] = test system: IL-6 secretion in RAW264.7 cells; experiment: IL6 assay by ELISA in LPS-activated RAW264.7 macrophages; type: cell-based; settings: Mus musculus, 1 μM dexamethasone 1 h before 0.2 μg/mL LPS, 24 h, read-out: inhibition of IL-6 secretion (% i)
Source text: In this example, we compare the anti-inflammatory activity of 2 Mimosa pudica extracts (E11 and E13). Extract E11 comes from ethyl acetate extraction of the dried and crushed Mimosa pudica leaves and extract E13 comes from extraction with the same solvent of the crushed materials derived from Mimosa pudica plant cell culture without bioconversion in an Erlenmeyer flask. The 2 extracts were weighed after evaporation of the solvent to dryness. They were taken up in DMSO. To evaluate and compare the anti-inflammatory activity of the 2 extracts in the same concentrations, we have an in vitro pharmacological test which consists in stimulating murine macrophages, RAW264.7 cells, that express on their surface the TLR4 receptor by the bacterial LPS according to (Kang et al. 2002. J Pharmacol Exp Ther. 302:138-144). Several parameters were studied and compared to a reference anti-inflammatory, dexamethasone: • nitrite production by the Griess technique. The nitrite level reflects the level of NO synthesis induced by inducible […] (iNOS). • cytokine secretion: interleukin-6 by ELISA • TNF-alpha production by multiplex assay Cell Culture
RAW264.7 cells are mouse macrophages in lineage. […]
as §2

[3] = test system: TNF-alpha production in RAW264.7 cells; experiment: TNF-alpha Luminex assay in LPS-activated RAW264.7 macrophages; type: cell-based; settings: Mus musculus, 1 μM dexamethasone 1 h before 0.2 μg/mL LPS, 24 h, read-out: inhibition of TNF-alpha production (% i)
Source text: as §1, with “302:138-144).” for “302:138-144). Several parameters were studied and compared to a reference anti-inflammatory, dexamethasone: • nitrite production by the Griess technique.”
Simultaneous assay of TNF-alpha in the cell supernatants was performed using the Luminex xMAP (multi-analyte profiling) technology which is based on the principles of flow cytometry and ELISA in a 96-well microplate. The microbeads used as substrate incorporate two fluorochromes in a precise ratio, which gives them an identifying colour code (different fluorescences). […] The second laser, green, (λ=532 nm) excites the reporter fluorochrome attached to the specific detection antibody in order to quantify the cytokine. […]
as §2

[4] = test system: DEFB103A (Defensin, beta 103B); experiment: In vitro model of induced atopic dermatitis, RT-qPCR: DEFB103A; type: cell-based, human; settings: NHEK + Poly(I:C), IL4, IL13, 24 h; 0.28 mM DEXA; control NHEK = 1
Experimental: (§3) The pharmacological model was described by Castex-Rizzi et al. (Br J Dermatol. 2014. 170 Suppl 1:12-8)
(§4) PCC extracts collected from crushed, dried, standardized Mimosa pudica culture medium W01D15 (with bioconversion) were dissolved/diluted in solution in 40% EtOH at initial concentrations of 75 mg/ml. The compounds were solubilized extemporaneously for viability tests as well as at the appropriate dose in order to measure pharmacological action on the model of induced atopic dermatitis.
(§5) Normal human epidermal keratinocytes (NHEKs) from Lonza. The cells are amplified under standard culture conditions.
(§6) NHEK cells are seeded and cultured in Keratinocyte-SFM culture medium. […]
(§7) Extraction was carried out using RNABle (Eurobio) and the RNeasy Mini Kit from QIAGEN. The total RNAs extracted are assayed on a spectrophotometer (NanoDrop, ND1000, Thermo Scientific) and their qualities analysed on agarose gel.
(§8) Real-time PCR is a precise, sensitive and rapid method that allows the relative quantification of the rate of expression of a target gene relative to that of a ubiquitously expressed reference gene. This technique makes it possible to quantify messenger RNA. […] Incorporation of a fluorophore (SYBR Green) during the hybridization step of exponential amplification allows quantification and real-time monitoring of the amount of neo-formed amplification product. […]

[5] = test system: RNASE7 (Ribonuclease, RNase A family, 7); experiment: In vitro model of induced atopic dermatitis, RT-qPCR: RNASE7; type: cell-based, human; settings: NHEK + Poly(I:C), IL4, IL13, 24 h; 0.28 mM DEXA; control NHEK = 1
Experimental: as §3, §4, §5, §6, §7, §8

[6] = test system: S100A7 (S100 calcium binding protein A7); experiment: In vitro model of induced atopic dermatitis, RT-qPCR: S100A7; type: cell-based, human; settings: NHEK + Poly(I:C), IL4, IL13, 24 h; 0.28 mM DEXA; control NHEK = 1
Experimental: as §3, §4, §5, §6, §7, §8

[7] = test system: TLR3 (Toll-like receptor 3); experiment: In vitro model of induced atopic dermatitis, RT-qPCR: TLR3; type: cell-based, human; settings: NHEK + Poly(I:C), IL4, IL13, 24 h; 0.28 mM DEXA; control NHEK = 1
Experimental: as §3, §4, §5, §6, §7, §8

[8] = test system: IFNB1 (Interferon, beta 1, fibroblast); experiment: In vitro model of induced atopic dermatitis, RT-qPCR: IFNB1; type: cell-based, human; settings: NHEK + Poly(I:C), IL4, IL13, 24 h; 0.28 mM DEXA; control NHEK = 1
Experimental: as §3, §4, §5, §6, §7, §8

[9] = test system: IL1A (Interleukin 1, alpha); experiment: In vitro model of induced atopic dermatitis, RT-qPCR: IL1A; type: cell-based, human; settings: NHEK + Poly(I:C), IL4, IL13, 24 h; 0.28 mM DEXA; control NHEK = 1
Experimental: as §3, §4, §5, §6, §7, §8

[10] = test system: IL1B (Interleukin 1, beta); experiment: In vitro model of induced atopic dermatitis, RT-qPCR: IL1B; type: cell-based, human; settings: NHEK + Poly(I:C), IL4, IL13, 24 h; 0.28 mM DEXA; control NHEK = 1
Experimental: as §3, §4, §5, §6, §7, §8

[11] = test system: IL4R (Interleukin 4 receptor); experiment: In vitro model of induced atopic dermatitis, RT-qPCR: IL4R; type: cell-based, human; settings: NHEK + Poly(I:C), IL4, IL13, 24 h; 0.28 mM DEXA; control NHEK = 1
Experimental: as §3, §4, §5, §6, §7, §8

[12] = test system: TSLP (Thymic stromal lymphopoietin); experiment: In vitro model of induced atopic dermatitis, RT-qPCR: TSLP; type: cell-based, human; settings: NHEK + Poly(I:C), IL4, IL13, 24 h; 0.28 mM DEXA; control NHEK = 1
Experimental: as §3, §4, §5, §6, §7, §8

[13] = test system: CCL13 (Chemokine (C-C motif) ligand 13); experiment: In vitro model of induced atopic dermatitis, RT-qPCR: CCL13; type: cell-based, human; settings: NHEK + Poly(I:C), IL4, IL13, 24 h; 0.28 mM DEXA; control NHEK = 1
Experimental: as §3, §4, §5, §6, §7, §8

[14] = test system: CCL11 (Chemokine (C-C motif) ligand 11); experiment: In vitro model of induced atopic dermatitis, RT-qPCR: CCL11; type: cell-based, human; settings: NHEK + Poly(I:C), IL4, IL13, 24 h; 0.28 mM DEXA; control NHEK = 1
Experimental: as §3, §4, §5, §6, §7, §8

[15] = test system: CCL20 (Chemokine (C-C motif) ligand 20); experiment: In vitro model of induced atopic dermatitis, RT-qPCR: CCL20; type: cell-based, human; settings: NHEK + Poly(I:C), IL4, IL13, 24 h; 0.28 mM DEXA; control NHEK = 1
Experimental: as §3, §4, §5, §6, §7, §8

[16] = test system: CCL27 (Chemokine (C-C motif) ligand 27); experiment: In vitro model of induced atopic dermatitis, RT-qPCR: CCL27; type: cell-based, human; settings: NHEK + Poly(I:C), IL4, IL13, 24 h; 0.28 mM DEXA; control NHEK = 1
Experimental: as §3, §4, §5, §6, §7, §8

[17] = test system: CCL5 (Chemokine (C-C motif) ligand 5); experiment: In vitro model of induced atopic dermatitis, RT-qPCR: CCL5; type: cell-based, human; settings: NHEK + Poly(I:C), IL4, IL13, 24 h; 0.28 mM DEXA; control NHEK = 1
Experimental: as §3, §4, §5, §6, §7, §8

IL15 (Interleukin 15) = experiment: In vitro model of induced atopic dermatitis, RT-qPCR: IL15; type: cell-based, human; settings: NHEK + Poly(I:C), IL4, IL13, 24 h; 0.28 mM DEXA; control NHEK = 1
Experimental: as §3, §4, §5, §6, §7, §8

IL8 (Interleukin 8) = experiment: In vitro model of induced atopic dermatitis, RT-qPCR: IL8; type: cell-based, human; settings: NHEK + Poly(I:C), IL4, IL13, 24 h; 0.28 mM DEXA; control NHEK = 1
Experimental: as §3, §4, §5, §6, §7, §8

CX3CL1 (Fractalkine) = experiment: In vitro model of induced atopic dermatitis, RT-qPCR: CX3CL1; type: cell-based, human; settings: NHEK + Poly(I:C), IL4, IL13, 24 h; 0.28 mM DEXA; control NHEK = 1
Experimental: as §3, §4, §5, §6, §7, §8

C[C@@H]1C[C@H]2[C@@H]3CCC4=CC(=O)C=C[C@]4(C)[C@@]3(F)[C@@H](O)C[C@]2(C)[C@@]1(O)C(=O)CO [dexamethasone]
inhibition at 1 µM [1]: 35%
inhibition at 1 µM [2]: 38%
inhibition at 1 µM [3]: 16%
relative expression (RQ) of DEFB103A [4]: 107.56
relative expression (RQ) of RNASE7 [5]: 43.23
relative expression (RQ) of S100A7 [6]: 79.12
relative expression (RQ) of TLR3 [7]: 2.79
relative expression (RQ) of IFNB1 [8]: 1.90
relative expression (RQ) of IL1A [9]: 8.54
relative expression (RQ) of IL1B [10]: 2.63
relative expression (RQ) of IL4R [11]: 7.03
relative expression (RQ) of TSLP [12]: 1.80
relative expression (RQ) of CCL13 [13]: 1.98
relative expression (RQ) of CCL11 [14]: 1.14
relative expression (RQ) of CCL20 [15]: 28.94
relative expression (RQ) of CCL27 [16]: 0.71
relative expression (RQ) of CCL5 [17]: 49.90
relative expression (RQ) of IL15 (IL15 (Interleukin 15)): 29.16
relative expression (RQ) of IL8 (IL8 (Interleukin 8)): 7.89
relative expression (RQ) of CX3CL1 (CX3CL1 (Fractalkine)): 36.63
